Assay results as given in patent US4517180A, “Peptides, process for preparing the same and psychodepressant compositions containing the same” (Amano Pharmaceutical Co., Ltd, priority 1982, dated 1985).
“Also recorded” adds a separate entry of the source.

Assays:
[1] = tested on: male Wister rats; test: Effect on metabolism of amine in the brain; format: in vivo
Experimental: Effect on metabolism of amine in the brain
Unfasted male Wister rats (weighing 180 to 220 g) were used. Peptide A or peptide B was subcutaneously given to the animal at a dose of 1 mg/kg, the head was irradiated with microwave 1 hour thereafter, and amine metabolite was extracted from the brain. First, removed tissues were homogenized with 1M formic acid and centrifuged at 20,000×g for 20 minutes, and the supernatant (1 ml) was shaken with 5 ml of ethyl acetate. The 3,4-dihydroxyphenylacetic acid (DOPAC), homovanillic acid (HVA) and 5-hydroxyindoleacetic acid (5-HIAA) in the ethyl acetate layer were analyzed by high-performance liquid chromatography under the following conditions. Chemcosorb, 5-ODS, 20 cm×4.6 mm I.D. was used for a separating column, and a mobile phase (0.1M KH2 PO4 (pH 5.0)-5 mM EDTA-2Na-5% acetonitrile) was passed through the colunn at a flow rate of 1 ml/min. The electrochemical detector was set to an oxidation potential of +0.8 V.

[2] = Induction of yawning behavior; details: in vivo
[3] = tested on: test animals; test: Induction of catalepsy in test animals; format: in vivo
[4] = tested on: Male ddy mice; test: Effect on climbing behavior induced by apomorphine (Pharmacological Test 7); format: in vivo; design: key: sum of 7 scores; each 0 = four legs on floor, 2 = ≥3 legs on rods; details: control 9.8 ± 0.7
Experimental: (§1) Effect on climbing behavior induced by apomorphine
Male ddy mice (weighing 20 to 30 g) were used, with 10 mice in each group. Each mouse was placed into a cylindrical cage, 12 cm in diameter and 14 cm in height, made up of vertical rods of 2 mm in diameter spaced apart at a distance of 10 mm in a circular arrangement. The mouse was allowed to stand therein for 2 hours. Physiological saline containing a specified amount of a test compound (and 1 mM of sodium hydrogencarbonate) was subcutaneously given to one group of mice in a volume of 1 ml/10 g. (The same dose of saline only was given to a control group). […] The test was carried out in soundproof compartments.
(§2) 0: All the four legs are on the floor.
(§3) 2: At least three legs are on rods.
The other compounds were tested in the same manner as above. The test was carried out in soundproof compartments. Student's t-test was resorted to for statistical treatment.

[5] = tested on: Male ddy mice; test: Effect on climbing behavior induced by apomorphine (Pharmacological Test 2); format: in vivo; design: key to Average: Mean ± S.E. (total of 7 scores), climbing behavior: sum of 7 scores; 0 = all four legs on floor, 2 = ≥3 legs on rods; details: for Average: Mean ± S.E. (total of 7 scores), climbing behavior: 30 min before apomorphine 0.75 mg/kg s.c., control 9.8 ± 0.7
Experimental: as §1
Male ddy mice (weighing 20 to 30 g) were used, with 10 mice in each group. Each mouse was placed into a cylindrical cage, 12 cm in diameter and 14 cm in height, made up of vertical rods of 2 mm in diameter spaced apart at a distance of 10 mm in a circular arrangement. The mouse was allowed to stand therein for 2 hours. Peptide A, peptide B, CCK-8 or, as a control, the above-mentioned diluent was subcutaneously given to the animal, and 30 minutes later, 0.75 mg/kg of apomorphine was subcutaneously given. […] The test was carried out in soundproof compartments.
as §2, §3
Student's t-test was resorted to for statistical treatment.

[6] = tested on: male Wister rats; test: Effect on the fixed ratio (FR20) responding in rats; format: in vivo; details: s.c., 15 min before 20 min session, dose giving count 50 with control as 100
Experimental: Effect on the fixed ratio responding in rats
The test was conducted according to the method described in Ahlenius S. and Engel J., Eur. J. Pharm., Vol. 15, 187-192 (1971).
Male Wister rats (weighing 240 to 320 g) were placed into Skinner box (product of Bil-Medika Co., Ltd., Japan, adapted to give a feed when a lever within the box is pressed) and made to learn how to take the food. In this test, one feed was given to the rats when the lever was pressed 20 times, i.e., fixed ratio (FR) 20. The rats showing stable FR20 response were divided into groups each including four rats.
Physiological saline (containing 1 mM of sodium hydrogencarbonate) containing a specified amount of a test compound was subcutaneously given to the rats of one group in a volume of 0.1 ml/100 g. (Physiological saline containing the above-mentioned amount of sodium hydrogencarbonate only was given to the control group). Fifteen minutes after the administration, the test animals were placed in the Skinner box, and the number of times the animals took the feed for 20 minutes was counted. The dose at which the count gained by the group of animals was 50, namely, ED50 value, was determined, with the count gained by the control group calculated as 100. The same procedure as above was repeated with use of the other test compounds.

[7] = tested on: Male ICR mice; test: Inhibitory effect on hyperlocomotion induced by administration of methylphenidate; format: in vivo; details: s.c. with methylphenidate 10 mg/kg s.c., measured 1 hour after, 50 with control as 100
Experimental: Inhibitory effect on hyperlocomotion induced by administration of methylphenidate
Male ICR mice (weighing 24 to 30 g) were divided into groups, each including 10 mice. To one group of mice were subcutaneously given 10 mg/kg of methylphenidate and 0.1 ml/10 g of a saline solution of a specified amount of a test compound and 1 mM of sodium hydrogencarbonate. One hour after the administration, the test animals were checked for hyperlocomotion, which was measured with use of a device for measuring locomotion of small animals (wherein the motion of an animal shifts the center of graavity of the device to actuate a microswitch for the measurement of the amount of motion, see Folia Pharmacologica Japonica, 74, 629-639 (1978). For a control group, the same procedure as above was repeated except that the saline solution given was free from any test compound. The concentration of the test compound at which the result achieved by the group of animals was 50, namely, ED50 value, was determined, with the measurement obtained by the control group calculated as 100. The other compounds were tested in the same manner as above.

[8] = tested on: male Wister rats; test: Effect on yawning behavior induced by apomorphine; format: in vivo
Experimental: Effect on yawning behavior
Male Wister rats (weighing 200 to 300 g) were used, with 10 rats in each group. The rat was placed into a plastics cage (17×24×12 cm) with a floor mat and was then habituated for 30 minutes. Peptide A, peptide B, CCK-8 or the above-mentioned diluent serving as a control was subcutaneously given to the animal. Thirty minutes thereafter, 0.03 mg/kg of apomorphine was subcutaneously given to the animal. The number of yawns induced by apomorphine was counted during a period of 30 minutes following administration of apomorphine. The test was conducted in a soundproof compartment for each animal. Wilcoxon rank-sum test was resorted to for statistical treatment.

SMILES: CSCC[C@H](NC(=O)[C@H](Cc1ccc(OS(=O)(=O)O)cc1)NC(=O)[C@@H](N)CC(=O)O)C(=O)NCC(=O)N[C@@H](Cc1c[nH]c2ccccc12)C(=O)N[C@@H](CCSC)C(=O)N[C@@H](CC(=O)O)C(=O)N[C@@H](Cc1ccccc1)C(N)=O [CCK-8, Asp--Tyr(SO3 H)--Met--Gly--Trp--Met--Asp--Phe--NH2, reference compound]
- Acceleration of the metabolism of dopamine in the brain of rats (in words) [1]: does not accelerate the metabolism of dopamine
- Induction of yawning behavior (thought to be induced by a reduction in the amount of dopamine) [2]: induces no yawning behavior whatsoever
- Induction of catalepsy (side effect) [3]: induces catalepsy
- Average: Mean ± S.E. (total of 7 scores), climbing behavior ([4]; 0.01 mg/kg s.c.): 10.2 ± 0.7
- Average: Mean ± S.E. (total of 7 scores), climbing behavior ([4]; 0.1 mg/kg s.c.): 11.4 ± 0.6
- Average: Mean ± S.E. (total of 7 scores), climbing behavior ([4]; 1.0 mg/kg s.c.): 9.5 ± 1.0
- Average: Mean ± S.E. (total of 7 scores), climbing behavior ([5]; 0.01 mg/kg s.c.): 10.2 ± 0.7
- Average: Mean ± S.E. (total of 7 scores), climbing behavior ([5]; 0.1 mg/kg s.c.): 11.4 ± 0.6
- Average: Mean ± S.E. (total of 7 scores), climbing behavior ([5]; 1 mg/kg s.c.): 9.5 ± 1.0
- Effect on apomorphine-induced climbing behavior (in words) ([5]; mice, s.c.): little or no influence on the climbing behavior; also recorded: does not inhibit this behavior
- ED50, inhibition of FR20 responding [6]: 0.0221 mg/kg
- ED50, inhibition of methylphenidate-induced hyperlocomotion [7]: 0.5125 mg/kg
- Number of yawns (average) ([8]; 1 mg/kg s.c., 30 min before apomorphine 0.03 mg/kg s.c., counted 30 min, control 4.5): 4.9
- Effect on yawning behavior induced by apomorphine (in words) ([8]; rats, s.c.): not inhibited
